From PMC6891762, “Novel Isoxazolidine and γ-Lactam Analogues of Homonucleosides” (Molecules, 2019)

Experiments:
Assay type in all cases: cell-based
[1] = test system: HCT-116 (colorectal carcinoma) cells; assay: Cytostatic activity, HCT-116; conditions: concentration causing 50% decrease in cell proliferation
Experimental: (§1) The 50% cytostatic inhibitory concentration (IC50) causing a 50% decrease in cell proliferation was determined for all isolated isoxazolidines 14 and γ-lactams 15 toward nine cancerous cell lines (Capan-1 (pancreatic adenocarcinoma), Hap1 (chronic myeloid leukemia), HCT-116 (colorectal carcinoma), NCI-H460 (lung carcinoma), DND-41 (acute lymphoblastic leukemia), HL-60 (acute myeloid leukemia), K-562 (chronic myeloid leukemia), MM.1S (multiple myeloma) and Z-138 (non-Hodgkin lymphoma)) and normal retina (non-cancerous) cells (hTERT RPE-1). Docetaxel, etoposide and stauroporine were used as the reference compounds.
(§2) All assays were performed in 96-well microtiter plates. To each well was added (5−7.5) × 10^4 tumor cells and a given amount of the test compound. The cells were allowed to proliferate at 37 °C in a humidified, CO2-controlled atmosphere. At the end of the incubation period, the cells were counted in a Coulter counter. The IC50 (50% inhibitory concentration) was defined as the concentration of the compound that inhibited cell proliferation by 50%.

[2] = test system: Hap1 (chronic myeloid leukemia) cells; assay: Cytostatic activity, Hap1; conditions: concentration causing 50% decrease in cell proliferation
Experimental: as §1, §2

[3] = test system: hTERT RPE-1 normal retina (non-cancerous) cells; assay: Cytostatic activity, normal retina cells; conditions: concentration causing 50% decrease in cell proliferation
Experimental: as §1, §2

[4] = test system: Capan-1 (pancreatic adenocarcinoma) cells; assay: Cytostatic activity, Capan-1
Experimental: as §1, with “RPE-1).” for “RPE-1). Docetaxel, etoposide and stauroporine were used as the reference compounds.”
as §2, with “counter.” for “counter. The IC50 (50% inhibitory concentration) was defined as the concentration of the compound that inhibited cell proliferation by 50%.”

[5] = test system: NCI-H460 (lung carcinoma) cells; assay: Cytostatic activity, NCI-H460; conditions: concentration causing 50% decrease in cell proliferation
Experimental: as §1, §2

[6] = Homo sapiens, CAPAN-1, concentration causing 50% decrease in cell proliferation
[7] = concentration causing 50% decrease in cell proliferation

Work on COC(=O)[C@@H]1C[C@H](Cn2ccc(=O)[nH]c2=O)N(C)O1 (relative stereo) [cis-14a, Methyl cis-3-{[2,4-dioxo-3,4–dihydropyrimidin-1(2H)-yl]methyl}-2-methylisoxazolidine-5-carboxylate] yielded an IC50 ([1]; Homo sapiens, HCT-116) greater than 100 µM, an IC50 ([2]; Homo sapiens, HAP1) greater than 100 µM and an IC50 ([3]; hTERT-RPE1) greater than 100 µM. It also gave an IC50 [4, 6] of 54.8 µM and an IC50 ([5]; Homo sapiens, NCI-H460) greater than 100 µM.
Work on COC(=O)[C@@H]1C[C@H](Cn2cc(C)c(=O)[nH]c2=O)N(C)O1 (relative stereo) [cis-14b, Methyl cis-2-methyl-3-{[5-methyl-2,4-dioxo-3,4–dihydropyrimidin-1(2H)-yl]methyl}isoxazolidine-5-carboxylate] yielded an IC50 ([1]; Homo sapiens, HCT-116) greater than 100 µM, an IC50 ([2]; Homo sapiens, HAP1) of 63 µM and an IC50 ([3]; hTERT-RPE1) greater than 100 µM. The IC50 [4, 6] was 55.2 µM and the IC50 ([5]; Homo sapiens, NCI-H460) was 60.3 µM.
COC(=O)[C@@H]1C[C@H](Cn2cc(F)c(=O)[nH]c2=O)N(C)O1 (relative stereo) [cis-14c, Methyl cis-3-{[5-fluoro-2,4-dioxo-3,4–dihydropyrimidin-1(2H)-yl]metyl}-2-methylisoxazolidine-5-carboxylate] showed an IC50 [1] greater than 100 µM, an IC50 [2] greater than 100 µM and an IC50 [3] greater than 100 µM. The IC50 [4, 7] was greater than 100 µM and the IC50 [5] was greater than 100 µM.
COC(=O)[C@@H]1C[C@H](Cn2cc(Br)c(=O)[nH]c2=O)N(C)O1 (relative stereo) [cis-14d, Methyl cis-3-{[5-bromo-2,4-dioxo-3,4–dihydropyrimidin-1(2H)-yl]metyl}-2-methylisoxazolidine-5-carboxylate] showed an IC50 [1] of 86.4 µM, an IC50 [2] greater than 100 µM and an IC50 [3] greater than 100 µM. For the same compound, the IC50 [4, 7] was 95 µM and the IC50 [5] was 62.3 µM.
With COC(=O)[C@@H]1C[C@H](Cn2cc(Cl)c(=O)[nH]c2=O)N(C)O1 (relative stereo) [cis-14e, Methyl cis-3-{[5-chloro-2,4-dioxo-3,4–dihydropyrimidin-1(2H)-yl]metyl}-2-methylisoxazolidine-5-carboxylate] the IC50 [1] was 26.7 µM, the IC50 [2] was 44.2 µM and the IC50 [3] was greater than 100 µM. It also gave an IC50 [4, 7] of 51.2 µM and an IC50 [5] of 48.8 µM.
With COC(=O)[C@@H]1C[C@H](Cn2cc(I)c(=O)[nH]c2=O)N(C)O1 (relative stereo) [cis-14f, Methyl cis-3-{[5-iodo-2,4-dioxo-3,4–dihydropyrimidin-1(2H)-yl]metyl}-2-methylisoxazolidine-5-carboxylate] the IC50 [1] was 57.9 µM, the IC50 [2] was 40.9 µM and the IC50 [4, 7] was 42 µM. For the same compound, the IC50 [5] was 44.6 µM.
COC(=O)[C@@H]1C[C@H](Cn2cnc3c(=O)n(C)c(=O)n(C)c32)N(C)O1 (relative stereo) [cis-14h, Methyl cis-3-[(1,3-dimethyl-2,6-dioxo-1,2,3,6-tetrahydro-9H-purin-9-yl)methyl]-2-methylisoxazolidine-5-carboxylate] was tested, and the IC50 ([1]; Homo sapiens, HCT-116) was 49 µM, the IC50 ([2]; Homo sapiens, HAP1) was 45.1 µM and the IC50 ([3]; hTERT-RPE1) was greater than 100 µM. For the same compound, the IC50 [4, 6] was 62.2 µM and the IC50 ([5]; Homo sapiens, NCI-H460) was 33.2 µM.
In the case of CN1C(=O)[C@H](O)C[C@@H]1Cn1cc(Cl)c(=O)[nH]c1=O (relative stereo) [cis-15e, cis-5-Chloro-1-[(4-hydroxy-1-methyl-5-oxopyrrolidin-2-yl)methyl]pyrimidine-2,4(1H,3H)-dione], the IC50 ([1]; Homo sapiens, HCT-116) is reported as 58.5 µM, the “IC50 (µM) HCT-116 Colorectal Carcinoma” value [1] is reported as “inhibited the proliferation” and the IC50 ([2]; Homo sapiens, HAP1) is reported as 51.5 µM. It also gave an IC50 ([3]; hTERT-RPE1) greater than 100 µM, an IC50 [4, 6] of 28 µM and an IC50 ([5]; Homo sapiens, NCI-H460) of 28.6 µM.
CN1C(=O)[C@H](O)C[C@@H]1Cn1cnc2c(=O)n(C)c(=O)n(C)c21 (relative stereo) [cis-15h, cis-9-[(4-Hydroxy-1-methyl-5-oxopyrrolidin-2-yl)methyl]-1,3-dimethyl-3,9–dihydro-1H-purine-2,6-dione] was tested, and the IC50 ([1]; Homo sapiens, HCT-116) was 43.5 µM, the IC50 ([2]; Homo sapiens, HAP1) was 50.2 µM and the IC50 ([3]; hTERT-RPE1) was greater than 100 µM. The IC50 [4, 6] was 18.2 µM, the IC50 [4, 7] was 21.5 µM and the IC50 ([5]; Homo sapiens, NCI-H460) was 42.5 µM.
For COC(=O)[C@H]1C[C@H](Cn2ccc(=O)[nH]c2=O)N(C)O1 (relative stereo) [trans-14a, Methyl trans-3-{[2,4-dioxo-3,4–dihydropyrimidin-1(2H)-yl]methyl}-2-methylisoxazolidine-5-carboxylate], the IC50 ([1]; Homo sapiens, HCT-116) was greater than 100 µM, the IC50 ([2]; Homo sapiens, HAP1) was greater than 100 µM and the IC50 ([3]; hTERT-RPE1) was greater than 100 µM. The IC50 [4, 6] was 62.6 µM and the IC50 ([5]; Homo sapiens, NCI-H460) was 90.3 µM.
With COC(=O)[C@H]1C[C@H](Cn2cc(C)c(=O)[nH]c2=O)N(C)O1 (relative stereo) [trans-14b, Methyl trans-2-methyl-3-{[5-methyl-2,4-dioxo-3,4–dihydropyrimidin-1(2H)-yl]methyl}isoxazolidine-5-carboxylate] the IC50 ([1]; Homo sapiens, HCT-116) was greater than 100 µM, the IC50 ([2]; Homo sapiens, HAP1) was greater than 100 µM and the IC50 ([3]; hTERT-RPE1) was greater than 100 µM. The IC50 [4, 6] was 51.3 µM and the IC50 ([5]; Homo sapiens, NCI-H460) was greater than 100 µM.
COC(=O)[C@H]1C[C@H](Cn2cc(F)c(=O)[nH]c2=O)N(C)O1 (relative stereo) [trans-14c, Methyl trans-3-{[5-fluoro-2,4-dioxo-3,4–dihydropyrimidin-1(2H)-yl]metyl}-2-methylisoxazolidine-5-carboxylate] gave an IC50 [1] greater than 100 µM, an IC50 [2] greater than 100 µM and an IC50 [3] greater than 100 µM. The IC50 [4, 7] was 49 µM and the IC50 [5] was greater than 100 µM.
Compound COC(=O)[C@H]1C[C@H](Cn2cc(Br)c(=O)[nH]c2=O)N(C)O1 (relative stereo) [trans-14d, Methyl trans-3-{[5-bromo-2,4-dioxo-3,4–dihydropyrimidin-1(2H)-yl]metyl}-2-methylisoxazolidine-5-carboxylate] has an IC50 [1] greater than 100 µM, an IC50 [2] greater than 100 µM and an IC50 [3] greater than 100 µM. For the same compound, the IC50 [4, 7] was 67.8 µM and the IC50 [5] was 76.1 µM.
In the case of COC(=O)[C@H]1C[C@H](Cn2cc(Cl)c(=O)[nH]c2=O)N(C)O1 (relative stereo) [trans-14e, Methyl trans-3-{[5-chloro-2,4-dioxo-3,4–dihydropyrimidin-1(2H)-yl]metyl}-2-methylisoxazolidine-5-carboxylate], the IC50 [1] is reported as 43.5 µM, the IC50 [2] is reported as 42.7 µM and the IC50 [3] is reported as greater than 100 µM. For the same compound, the IC50 [4, 7] was 38.5 µM and the IC50 [5] was 41.9 µM.
COC(=O)[C@H]1C[C@H](Cn2cc(I)c(=O)[nH]c2=O)N(C)O1 (relative stereo) [trans-14f, Methyl trans-3-{[5-iodo-2,4-dioxo-3,4–dihydropyrimidin-1(2H)-yl]metyl}-2-methylisoxazolidine-5-carboxylate] showed an IC50 [1] of 53.5 µM, an IC50 [2] of 47 µM and an IC50 [3] greater than 100 µM. It also gave an IC50 [4, 7] of 41.4 µM and an IC50 [5] of 41.1 µM.
COC(=O)[C@H]1C[C@H](CN2CCC(=O)NC2=O)N(C)O1 (relative stereo) [trans-14g, Methyl trans-3-{[2,4-dioxotetrahydropyrimidin-1(2H)-yl]metyl}-2-methylisoxazolidine-5-carboxylate] gave an IC50 [1] of 61 µM, an IC50 [2] of 58.1 µM and an IC50 [3] greater than 100 µM. The IC50 [4, 7] was 38.3 µM and the IC50 [5] was 48.6 µM.
Work on COC(=O)[C@H]1C[C@H](Cn2cnc3c(=O)n(C)c(=O)n(C)c32)N(C)O1 (relative stereo) [trans-14h, Methyl trans-3-[(1,3-dimethyl-2,6-dioxo-1,2,3,6-tetrahydro-9H-purin-9-yl)methyl]-2-methylisoxazolidine-5-carboxylate] yielded an IC50 ([1]; Homo sapiens, HCT-116) of 60.9 µM, an IC50 ([2]; Homo sapiens, HAP1) of 53.6 µM and an IC50 ([3]; hTERT-RPE1) greater than 100 µM. It also gave an IC50 [4, 6] of 43.2 µM and an IC50 ([5]; Homo sapiens, NCI-H460) of 51.2 µM.
CN[C@@H]1C[C@H]2O[C@@](C)([C@@H]1OC)n1c3ccccc3c3c4c(c5c6ccccc6n2c5c31)C(=O)NC4 [Stauroporine, reference compound] was tested, and the IC50 [1] was 0.09 µM, the IC50 [2] was 3.55 µM and the IC50 [3] was 0.25 µM. It also gave an IC50 [5] of 11.5 µM.
